In PMC9316543, “Characterization, Expression Profiling, and Biochemical Analyses of the Cinnamoyl-CoA Reductase Gene Family for Lignin Synthesis in Alfalfa Plants” (International Journal of Molecular Sciences, 2022):
Where two headings read alike, the source gives them in different places.

Columns and labels:
MsCCR1 = tested on: T1, MsCCR1; experiment: NADPH oxidation, decrease of A366; type: biochemical, Medicago sativa; details: NADPH 160 μM, 1x PBS, substrate 30-150 μM
T1 construct: gene CCR1; His-tagged, pET-28a, E. coli BL21, Ni-NTA; tag removal not mentioned
From the text: NADPH oxidation, decrease of A366 on MsCCR1

MsCCR-like1 = tested on: T2, MsCCR-like1; experiment: NADPH oxidation, decrease of A366; type: biochemical, Medicago sativa; details: NADPH 160 μM, 1x PBS, substrate 30-150 μM
T2 construct: His-tagged, pET-28a, E. coli BL21, Ni-NTA; tag removal not mentioned
From the text: NADPH oxidation, decrease of A366 on MsCCR-like1

[1] = read-out: p-Coumaroyl-CoA / K m

COc1cc(/C=C/C(=O)SCCNC(=O)CCNC(=O)[C@H](O)C(C)(C)COP(=O)(O)OP(=O)(O)OC[C@H]2O[C@@H](n3cnc4c(N)ncnc43)[C@H](O)[C@@H]2OP(=O)(O)O)ccc1O [Feruloyl-CoA] was tested, and the Km (MsCCR1; read-out: Feruloyl-CoA / K m) was 45.2 ± 11.4 µM.

In the case of CC(C)(COP(=O)(O)OP(=O)(O)OC[C@H]1O[C@@H](n2cnc3c(N)ncnc32)[C@H](O)[C@@H]1OP(=O)(O)O)[C@@H](O)C(=O)NCCC(=O)NCCSC(=O)/C=C/c1ccc(O)cc1 [p-Coumaroyl-CoA], the Km (MsCCR-like1; [1]) is reported as 44.1 ± 7.12 µM and the Km (MsCCR1; [1]) is reported as 24.2 ± 4.51 µM.

Work on COc1cc(/C=C/C(=O)SCCNC(=O)CCNC(=O)[C@H](O)C(C)(C)COP(=O)(O)OP(=O)(O)OC[C@H]2O[C@@H](n3cnc4c(N)ncnc43)[C@H](O)[C@@H]2OP(=O)(O)O)cc(OC)c1O [Sinapoyl-CoA] yielded a Km (MsCCR1; read-out: Sinapoyl-CoA / K m) of 10.6 ± 1.25 µM.

In the case of CC(C)(COP(=O)(O)OP(=O)(O)OC[C@H]1O[C@@H](n2cnc3c(N)ncnc32)[C@H](O)[C@@H]1OP(=O)(O)O)[C@@H](O)C(=O)NCCC(=O)NCCSC(=O)/C=C/c1ccc(O)c(O)c1 [Caffeoyl-CoA], the Km (MsCCR-like1; read-out: Caffeoyl-CoA / K m) is reported as 48.2 ± 1.75 µM.
